Activity calls are given as the source filed them.
Tested on: not listed separately
Test: luciferase reporter signal suppression in cells – H4 neuroglioma cells, luminescence, dose response (AID 1990)
Format: functional, cell-based
Conditions: not given

SMILES | EC50
COc1cc2nc(C3CCC3)nc(N3CCN(c4ccccn4)CC3)c2cc1OC | 15.1 µM (active)

Tested on: not listed separately
Test: Luminescence Cell-Based Dose Confirmation HTS to Identify Activators of 5'UTR Stem-Loop Driven Alpha-Synuclein mRNA Translation in H4 Neuroglioblastoma Cells. [Related pubchem assays: 1829 (Project Summary), 1814 (Primary HTS)]
Format: functional
Conditions: not given

SMILES | EC50
CC(C)(C)C1CCc2c(sc3nc(SCC(N)=O)nc(N)c23)C1 (stereo not drawn) | 27.3 µM (active)

Tested on: not listed separately
Test: Luminescence Cell-Based Dose Response HTS to Identify Inhibitors of 5'UTR Stem-Loop Driven Prion Protein mRNA Translation in H4 Neuroglioblastoma Cells. [Related pubchem assays: 1827 (Project Summary), 1813 (Primary HTS)]
Format: functional
Conditions: not given

SMILES | EC50
COc1cc2nc(C3CCC3)nc(N3CCN(c4ccccn4)CC3)c2cc1OC | 14.6 µM (active)

Tested on: H4
Test: Luminescence Cell-Based Dose Response HTS to Identify Activators of 5'UTR Stem-Loop Driven Prion Protein mRNA Translation in H4 Neuroglioblastoma Cells. [Related pubchem assays: 1829 (Project Summary), 1814 (Primary HTS)]
Format: functional
Conditions: Homo sapiens

SMILES | EC50
CC(C)(C)C1CCc2c(sc3nc(SCC(N)=O)nc(N)c23)C1 (stereo not drawn) | 24.9 µM (active)

Biological target: T1, Heat shock factor protein 1 (Mus musculus, UniProt P38532)
T1 sequence (P38532 whole entry): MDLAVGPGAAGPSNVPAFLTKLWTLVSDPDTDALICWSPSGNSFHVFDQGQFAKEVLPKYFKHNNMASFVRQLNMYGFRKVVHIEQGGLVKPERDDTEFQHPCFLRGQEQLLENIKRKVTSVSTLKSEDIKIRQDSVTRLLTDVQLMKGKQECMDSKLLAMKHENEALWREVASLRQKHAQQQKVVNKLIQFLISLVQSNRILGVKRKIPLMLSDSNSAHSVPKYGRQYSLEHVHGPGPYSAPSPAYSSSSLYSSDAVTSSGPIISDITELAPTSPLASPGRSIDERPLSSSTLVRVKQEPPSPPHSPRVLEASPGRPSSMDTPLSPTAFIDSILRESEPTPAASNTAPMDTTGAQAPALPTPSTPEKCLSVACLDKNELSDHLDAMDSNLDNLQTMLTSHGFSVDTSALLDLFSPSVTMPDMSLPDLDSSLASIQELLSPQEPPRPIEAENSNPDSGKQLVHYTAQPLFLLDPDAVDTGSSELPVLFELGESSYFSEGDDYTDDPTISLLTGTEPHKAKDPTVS
Test: decrease of HSF1-responsive luciferase luminescence – cell-based, NIH3T3, dose retest, confirmation (AID 2382);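 also: NIH3T3 fibroblasts with HSF1-driven luciferase reporter stressed by proteasome inhibitor MG132; luminescence from HSF1-driven luciferase expression after 8 hours of MG132 stress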
Format: functional
Conditions: not given

SMILES | EC50
CCN(CC(=O)Nc1c(F)cccc1F)C(=O)Cc1nnc(O)c2ccccc12 | > 195 µM (not active)
COc1ccc(C(=O)Oc2ccc(/C=N/O)cc2)cc1 | > 195 µM (not active)

Tested on: not listed separately
Test: alpha-synuclein stem-loop luciferase translation blockers – H4 neuroglioma cells, luminescence, confirmation (AID 1988)
Format: functional, cell-based
Conditions: not given

SMILES | EC50
COc1cc2nc(C3CCC3)nc(N3CCN(c4ccccn4)CC3)c2cc1OC | 15.2 µM (active)

Biological target: Large T antigen (Simian virus 40, UniProt P03070);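 also: Confirmatory-stage PubChem screen for compounds that inhibit SV40 T antigen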
Test: not given
Format: functional, Betapolyomavirus macacae
Conditions: not given

Large T antigen, sequence (P03070 whole entry): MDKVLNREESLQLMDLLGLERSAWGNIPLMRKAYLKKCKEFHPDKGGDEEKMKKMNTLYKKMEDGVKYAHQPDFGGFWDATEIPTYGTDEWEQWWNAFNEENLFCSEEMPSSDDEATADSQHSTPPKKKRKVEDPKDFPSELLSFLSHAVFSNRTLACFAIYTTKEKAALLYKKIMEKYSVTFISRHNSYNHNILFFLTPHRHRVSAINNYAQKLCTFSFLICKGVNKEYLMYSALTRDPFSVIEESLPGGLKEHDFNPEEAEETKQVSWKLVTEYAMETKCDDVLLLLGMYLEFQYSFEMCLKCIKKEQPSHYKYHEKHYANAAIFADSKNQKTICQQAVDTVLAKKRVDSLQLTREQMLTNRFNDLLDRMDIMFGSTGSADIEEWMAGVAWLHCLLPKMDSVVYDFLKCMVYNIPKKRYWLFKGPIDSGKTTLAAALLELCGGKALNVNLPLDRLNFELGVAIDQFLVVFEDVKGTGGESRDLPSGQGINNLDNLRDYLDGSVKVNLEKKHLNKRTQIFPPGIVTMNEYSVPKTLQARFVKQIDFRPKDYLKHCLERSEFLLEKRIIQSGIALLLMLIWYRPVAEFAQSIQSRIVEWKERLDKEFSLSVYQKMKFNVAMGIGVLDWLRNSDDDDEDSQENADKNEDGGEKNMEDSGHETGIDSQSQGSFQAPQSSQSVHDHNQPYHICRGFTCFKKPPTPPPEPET

SMILES | IC50
Cc1nn(-c2ccccc2)c2nc(O)c(CNc3ccc(N4CCOCC4)cc3)cc12 | 5.01 µM (active)
C(=N\c1ccc(Nc2ccccc2)cc1)/c1ccc2ccccc2c1 | 8.25 µM (active)

Biological target: Luciferin 4-monooxygenase (Photinus pyralis, UniProt P08659)
Test: inhibition of purified Photinus pyralis luciferase – biochemical, luminescence, dose response (AID 1891)
Conditions: not given

Luciferin 4-monooxygenase, sequence (P08659 whole entry): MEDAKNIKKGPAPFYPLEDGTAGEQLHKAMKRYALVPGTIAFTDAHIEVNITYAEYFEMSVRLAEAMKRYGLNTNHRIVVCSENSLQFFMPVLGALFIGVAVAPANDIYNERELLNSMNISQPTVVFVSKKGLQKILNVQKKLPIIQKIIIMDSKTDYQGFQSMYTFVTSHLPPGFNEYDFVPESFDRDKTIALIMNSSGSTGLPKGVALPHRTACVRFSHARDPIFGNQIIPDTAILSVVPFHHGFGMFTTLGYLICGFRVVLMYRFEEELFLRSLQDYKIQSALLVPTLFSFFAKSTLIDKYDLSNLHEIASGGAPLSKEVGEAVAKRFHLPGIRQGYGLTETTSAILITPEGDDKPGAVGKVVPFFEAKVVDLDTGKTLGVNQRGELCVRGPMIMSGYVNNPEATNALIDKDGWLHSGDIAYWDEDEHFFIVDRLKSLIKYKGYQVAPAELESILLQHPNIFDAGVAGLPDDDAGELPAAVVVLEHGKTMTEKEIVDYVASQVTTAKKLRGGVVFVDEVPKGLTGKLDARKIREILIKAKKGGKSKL

SMILES | EC50
CC1Cc2nc(SCC(=O)N3CCCc4ccccc43)n(C)c(=O)c2S1 (stereo not drawn) | > 112 µM (not active)
COc1ccc(CN2CCN(C(=O)Cn3nc(C(=O)O)c4ccccc4c3=O)CC2)cc1F | > 112 µM (not active)
Cc1cc(F)ccc1NC(=O)c1cc(S(=O)(=O)N2CCOCC2)cn1C | > 112 µM (not active)
O=C(CCN1C(=O)C2C3CCC(C3)C2C1=O)Nc1ccccc1Cl (stereo not drawn) | > 112 µM (not active)
Cc1ccccc1C(=O)OCn1nnc2ccccc2c1=O | > 112 µM (not active)
NC(=O)N1CCN(C(=O)c2ccco2)CC1 | > 112 µM (not active)
O=C(Nc1ccn(Cc2ccc(F)cc2)n1)c1ccncc1 | > 112 µM (not active)
COc1cccc(N2CCN(Cc3ccc(Cl)cc3)CC2)c1 | > 112 µM (not active)
COc1ccccc1C(=O)Nc1ccc(C2=NNC(=O)CC2C)cc1 (stereo not drawn) | > 112 µM (not active)

Tested on: not listed separately
Test: Luminescence Cell-Based Dose Confirmation HTS to Identify Inhibitors of Platelet Dense Granule Release. [Related pubchem assays: 1663 (Primary HTS), 1678 (Summary of Project)]
Format: functional
Conditions: not given

SMILES | EC50
CC1Cc2nc(SCC(=O)N3CCCc4ccccc43)n(C)c(=O)c2S1 (stereo not drawn) | > 112 µM (not active)
COc1ccc(CN2CCN(C(=O)Cn3nc(C(=O)O)c4ccccc4c3=O)CC2)cc1F | 7.7 µM (active)
Cc1cc(F)ccc1NC(=O)c1cc(S(=O)(=O)N2CCOCC2)cn1C | > 112 µM (not active)
O=C(CCN1C(=O)C2C3CCC(C3)C2C1=O)Nc1ccccc1Cl (stereo not drawn) | > 112 µM (not active)
Cc1ccccc1C(=O)OCn1nnc2ccccc2c1=O | 16.2 µM (active)
NC(=O)N1CCN(C(=O)c2ccco2)CC1 | > 112 µM (not active)
O=C(Nc1ccn(Cc2ccc(F)cc2)n1)c1ccncc1 | > 112 µM (not active)
COc1cccc(N2CCN(Cc3ccc(Cl)cc3)CC2)c1 | > 112 µM (not active)
COc1ccccc1C(=O)Nc1ccc(C2=NNC(=O)CC2C)cc1 (stereo not drawn) | 0.361 µM (active)

Tested on: not listed separately
Test: microbe, parasite or virus in culture
Format: functional
Conditions: Mycobacterium tuberculosis

SMILES | CC50
CC(C)(C)C1CCc2c(sc3nc(SCC(N)=O)nc(N)c23)C1 (stereo not drawn) | > 40 µM (active)
Cc1ccc(NC(=O)C2CCN(S(=O)(=O)c3ccc4c(c3)NC(=O)C(C)S4)CC2)c(Cl)c1 (stereo not drawn) | > 40 µM (active)
C=CCn1c(=O)/c(=C/c2ccc(Cl)cc2)s/c1=C(/C#N)c1nnc2n1CCCCC2 | 40 µM (active)

Biological target: FAD-linked sulfhydryl oxidase ALR (Homo sapiens, UniProt P55789)
Test: ALR-catalysed DTT oxidation blockers – biochemical, H2O2 detection, luminescence, cherry-pick, dose response (AID 493248)
Conditions: not given

FAD-linked sulfhydryl oxidase ALR, sequence (P55789 whole entry): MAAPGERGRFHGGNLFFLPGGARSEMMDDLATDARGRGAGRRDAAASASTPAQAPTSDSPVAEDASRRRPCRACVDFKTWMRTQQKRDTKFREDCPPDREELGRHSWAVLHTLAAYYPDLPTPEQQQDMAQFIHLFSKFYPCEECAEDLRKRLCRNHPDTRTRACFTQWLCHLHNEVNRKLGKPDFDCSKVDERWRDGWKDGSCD

SMILES | AC50
O=C(NCc1cccnc1)C(=O)NCC(c1ccco1)N1CCN(c2ccccc2)CC1 (stereo not drawn) | 2.78 µM (active)
SC1=NC2(CCCCC2)NN1c1ccccc1 | 1.79 µM (active)
Cc1noc(NS(=O)(=O)c2ccc(NC(=O)c3cnc4n(c3=O)CCS4)cc2)c1C | 0.255 µM (active)
Cn1c(S)nnc1CCNC(=O)OC(C)(C)C | 2.79 µM (active)
Cc1ccc(S(=O)(=O)N2CCN=C2SCc2cccnc2)cc1 | 0.046 µM (active)
CC(C)=NNc1nc(-c2ccccc2)cs1 | 0.601 µM (active)
Cc1cccc(-n2c(CCn3nc(C)c([N+](=O)[O-])c3C)n[nH]c2=S)c1 | 4.3 µM (active)
COc1ccc(C(=O)Oc2ccc(/C=N/O)cc2)cc1 | 0.247 µM (active)

Tested on: H9c2;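 also: confirmatory concentration-response retest of ultra-high-throughput screening hits for modulation of myocardial damage; cell death induced by hydrogen peroxide oxidative stress; compound pretreatment for 60 min then peroxide exposure for 2 h; potency is for protecting the cells against peroxide damage rather than for killing them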
Test: cells
Format: functional, cell-based
Conditions: Rattus norvegicus, H9c2, Myocardium

SMILES | IC50
COc1cccc(-c2ccc(SCC(=O)N3CCN(c4ccccc4)CC3)nn2)c1 | 16.1 µM (active)
CCN(CC(=O)Nc1c(F)cccc1F)C(=O)Cc1nnc(O)c2ccccc12 | > 79 µM (inactive)
COc1cc2nc(C3CCC3)nc(N3CCN(c4ccccn4)CC3)c2cc1OC | > 79 µM (inactive)
COCCCNC(=O)/C(C#N)=C1\N=C(NC(=O)c2cccs2)c2ccccc21 | > 79 µM (inactive)
O=C(CNC(=O)c1ccccc1F)N/N=C/c1cc(Br)ccc1OC(=O)/C=C/c1ccco1 | > 79 µM (inactive)

Biological target: T2, Fatty acid synthase (Homo sapiens, UniProt P49327)
Test: inhibition of human FAS-TE enzyme activity – biochemical, endpoint fluorescence intensity, uHTS hits, dose response (AID 624327);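 also: fluorescence from hydrolysis of an O-methyl fluorescein acyl ester substrate by the enzyme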
Format: functional
Conditions: not given

T2 sequence (P49327 whole entry): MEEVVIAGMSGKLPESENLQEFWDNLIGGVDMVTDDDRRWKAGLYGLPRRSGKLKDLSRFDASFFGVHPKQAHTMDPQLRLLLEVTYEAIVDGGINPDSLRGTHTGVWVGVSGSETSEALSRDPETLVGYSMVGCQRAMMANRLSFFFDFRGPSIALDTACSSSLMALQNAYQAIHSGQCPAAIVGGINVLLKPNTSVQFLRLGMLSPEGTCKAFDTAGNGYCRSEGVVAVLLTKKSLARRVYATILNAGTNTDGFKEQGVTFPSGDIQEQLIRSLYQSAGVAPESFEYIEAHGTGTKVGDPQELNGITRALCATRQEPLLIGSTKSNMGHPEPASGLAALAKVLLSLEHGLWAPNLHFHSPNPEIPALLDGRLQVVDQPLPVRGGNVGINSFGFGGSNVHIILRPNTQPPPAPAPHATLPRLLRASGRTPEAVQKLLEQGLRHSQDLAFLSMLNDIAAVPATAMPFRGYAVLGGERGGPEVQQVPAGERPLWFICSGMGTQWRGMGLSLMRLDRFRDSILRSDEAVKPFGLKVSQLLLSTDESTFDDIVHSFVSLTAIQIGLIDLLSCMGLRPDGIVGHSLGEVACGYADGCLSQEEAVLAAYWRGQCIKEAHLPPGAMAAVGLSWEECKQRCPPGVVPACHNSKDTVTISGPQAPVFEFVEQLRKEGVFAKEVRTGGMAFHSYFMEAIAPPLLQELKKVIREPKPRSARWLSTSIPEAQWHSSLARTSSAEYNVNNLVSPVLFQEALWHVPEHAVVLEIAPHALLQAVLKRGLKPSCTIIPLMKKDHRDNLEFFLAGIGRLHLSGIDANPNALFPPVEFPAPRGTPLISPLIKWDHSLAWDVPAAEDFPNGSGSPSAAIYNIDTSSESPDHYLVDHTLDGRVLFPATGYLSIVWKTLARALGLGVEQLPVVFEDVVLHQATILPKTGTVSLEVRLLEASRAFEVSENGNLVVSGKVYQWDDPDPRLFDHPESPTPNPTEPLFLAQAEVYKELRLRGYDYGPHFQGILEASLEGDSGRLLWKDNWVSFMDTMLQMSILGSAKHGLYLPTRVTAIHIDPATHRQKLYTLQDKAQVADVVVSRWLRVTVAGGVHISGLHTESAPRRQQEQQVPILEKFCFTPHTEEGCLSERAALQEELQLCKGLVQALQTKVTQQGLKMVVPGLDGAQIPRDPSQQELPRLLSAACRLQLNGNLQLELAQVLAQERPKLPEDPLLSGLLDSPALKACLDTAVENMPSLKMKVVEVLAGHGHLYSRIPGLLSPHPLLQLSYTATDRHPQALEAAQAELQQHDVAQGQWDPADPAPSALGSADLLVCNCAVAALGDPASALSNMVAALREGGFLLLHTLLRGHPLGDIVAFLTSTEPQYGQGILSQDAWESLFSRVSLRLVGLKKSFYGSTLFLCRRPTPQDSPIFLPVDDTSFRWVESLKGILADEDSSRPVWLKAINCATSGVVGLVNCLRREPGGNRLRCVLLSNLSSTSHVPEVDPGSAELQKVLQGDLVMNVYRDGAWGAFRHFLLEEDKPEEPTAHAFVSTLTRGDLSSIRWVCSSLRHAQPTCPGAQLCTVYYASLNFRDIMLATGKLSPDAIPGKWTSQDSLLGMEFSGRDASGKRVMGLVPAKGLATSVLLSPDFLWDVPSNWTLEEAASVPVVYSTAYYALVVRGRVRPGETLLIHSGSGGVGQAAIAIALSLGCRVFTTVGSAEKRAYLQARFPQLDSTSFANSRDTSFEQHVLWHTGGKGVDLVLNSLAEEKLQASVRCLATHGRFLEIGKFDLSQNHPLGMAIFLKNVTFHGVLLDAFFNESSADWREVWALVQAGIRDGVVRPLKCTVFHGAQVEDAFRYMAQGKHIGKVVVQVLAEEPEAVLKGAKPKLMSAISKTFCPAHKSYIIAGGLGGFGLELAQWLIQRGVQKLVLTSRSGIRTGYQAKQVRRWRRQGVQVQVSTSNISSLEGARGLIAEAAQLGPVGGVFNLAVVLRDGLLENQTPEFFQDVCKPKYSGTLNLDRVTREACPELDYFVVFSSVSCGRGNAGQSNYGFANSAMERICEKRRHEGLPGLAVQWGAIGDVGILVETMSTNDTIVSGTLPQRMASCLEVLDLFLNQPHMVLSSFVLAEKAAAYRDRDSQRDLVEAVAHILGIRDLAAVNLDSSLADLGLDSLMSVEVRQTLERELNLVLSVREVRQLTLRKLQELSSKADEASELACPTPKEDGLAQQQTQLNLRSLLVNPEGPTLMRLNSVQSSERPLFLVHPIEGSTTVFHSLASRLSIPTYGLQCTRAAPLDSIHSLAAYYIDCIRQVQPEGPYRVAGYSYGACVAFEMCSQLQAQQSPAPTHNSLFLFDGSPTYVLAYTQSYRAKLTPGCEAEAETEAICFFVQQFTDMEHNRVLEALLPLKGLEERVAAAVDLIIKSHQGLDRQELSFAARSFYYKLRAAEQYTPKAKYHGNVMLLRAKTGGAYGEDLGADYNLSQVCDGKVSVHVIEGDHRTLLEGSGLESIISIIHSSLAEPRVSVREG

SMILES | IC50
O=C(COC(=O)c1cc([N+](=O)[O-])ccc1N1CCOCC1)Nc1ccc(Cl)cc1 | 2.23 µM (active)
Cc1cc(C)c([N+](=O)[O-])cc1NCC(=O)N1CCN(c2ccccc2)CC1 | 9.53 µM (active)
O=C(NC12CC3CC(CC(C3)C1)C2)c1cc([N+](=O)[O-])ccc1N1CCOCC1 | 24.9 µM (inactive)
Cn1c(SCc2cccc(Cl)c2)nc(C(F)(F)F)cc1=O | 18.4 µM (active)
CCOC(=O)CCSc1nc2c(c(C(F)(F)F)c1C#N)CCC2 | 7.74 µM (active)
CC1CCCN(C(=O)COC(=O)c2cc([N+](=O)[O-])ccc2N2CCOCC2)C1 (stereo not drawn) | 2.27 µM (active)
Cc1ccc(S(=O)(=O)N2CCN(C(=O)COC(=O)c3cc([N+](=O)[O-])ccc3NCCO)CC2)c(C)c1 | 6.04 µM (active)
COc1ccc(CNC(=O)C[C@H]2C[C@H](C(=O)N3CCOCC3)[C@@]3(CCC4CCCC4)c4[nH]c5ccc(Cl)cc5c4CCN3C2=O)cc1OC | 1.71 µM (active)
COc1ccc(Cl)cc1-c1cc(C(=O)NCc2ccc(C(F)(F)F)cc2)[nH]n1 | 15.4 µM (active)

Biological target: T2, Fatty acid synthase
Test: inhibition of human FAS-TE enzyme activity – biochemical, kinetic fluorescence intensity, dose response (AID 624326);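 also: rate of fluorescence rise from hydrolysis of a fluorogenic O-methyl fluorescein ester substrate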
Format: functional
Conditions: not given

SMILES | IC50
O=C(COC(=O)c1cc([N+](=O)[O-])ccc1N1CCOCC1)Nc1ccc(Cl)cc1 | 1.96 µM (active)
Cc1cc(C)c([N+](=O)[O-])cc1NCC(=O)N1CCN(c2ccccc2)CC1 | 6.55 µM (active)
O=C(NC12CC3CC(CC(C3)C1)C2)c1cc([N+](=O)[O-])ccc1N1CCOCC1 | 14.7 µM (active)
Cn1c(SCc2cccc(Cl)c2)nc(C(F)(F)F)cc1=O | 12.2 µM (active)
CCOC(=O)CCSc1nc2c(c(C(F)(F)F)c1C#N)CCC2 | 8.57 µM (active)
CC1CCCN(C(=O)COC(=O)c2cc([N+](=O)[O-])ccc2N2CCOCC2)C1 (stereo not drawn) | 1.91 µM (active)
Cc1ccc(S(=O)(=O)N2CCN(C(=O)COC(=O)c3cc([N+](=O)[O-])ccc3NCCO)CC2)c(C)c1 | 2.7 µM (active)
COc1ccc(CNC(=O)C[C@H]2C[C@H](C(=O)N3CCOCC3)[C@@]3(CCC4CCCC4)c4[nH]c5ccc(Cl)cc5c4CCN3C2=O)cc1OC | 0.878 µM (active)
COc1ccc(Cl)cc1-c1cc(C(=O)NCc2ccc(C(F)(F)F)cc2)[nH]n1 | 17.1 µM (active)

Biological target: T3, Histone-lysine N-methyltransferase NSD2 (Homo sapiens, UniProt O96028)
T3 sequence (O96028 whole entry): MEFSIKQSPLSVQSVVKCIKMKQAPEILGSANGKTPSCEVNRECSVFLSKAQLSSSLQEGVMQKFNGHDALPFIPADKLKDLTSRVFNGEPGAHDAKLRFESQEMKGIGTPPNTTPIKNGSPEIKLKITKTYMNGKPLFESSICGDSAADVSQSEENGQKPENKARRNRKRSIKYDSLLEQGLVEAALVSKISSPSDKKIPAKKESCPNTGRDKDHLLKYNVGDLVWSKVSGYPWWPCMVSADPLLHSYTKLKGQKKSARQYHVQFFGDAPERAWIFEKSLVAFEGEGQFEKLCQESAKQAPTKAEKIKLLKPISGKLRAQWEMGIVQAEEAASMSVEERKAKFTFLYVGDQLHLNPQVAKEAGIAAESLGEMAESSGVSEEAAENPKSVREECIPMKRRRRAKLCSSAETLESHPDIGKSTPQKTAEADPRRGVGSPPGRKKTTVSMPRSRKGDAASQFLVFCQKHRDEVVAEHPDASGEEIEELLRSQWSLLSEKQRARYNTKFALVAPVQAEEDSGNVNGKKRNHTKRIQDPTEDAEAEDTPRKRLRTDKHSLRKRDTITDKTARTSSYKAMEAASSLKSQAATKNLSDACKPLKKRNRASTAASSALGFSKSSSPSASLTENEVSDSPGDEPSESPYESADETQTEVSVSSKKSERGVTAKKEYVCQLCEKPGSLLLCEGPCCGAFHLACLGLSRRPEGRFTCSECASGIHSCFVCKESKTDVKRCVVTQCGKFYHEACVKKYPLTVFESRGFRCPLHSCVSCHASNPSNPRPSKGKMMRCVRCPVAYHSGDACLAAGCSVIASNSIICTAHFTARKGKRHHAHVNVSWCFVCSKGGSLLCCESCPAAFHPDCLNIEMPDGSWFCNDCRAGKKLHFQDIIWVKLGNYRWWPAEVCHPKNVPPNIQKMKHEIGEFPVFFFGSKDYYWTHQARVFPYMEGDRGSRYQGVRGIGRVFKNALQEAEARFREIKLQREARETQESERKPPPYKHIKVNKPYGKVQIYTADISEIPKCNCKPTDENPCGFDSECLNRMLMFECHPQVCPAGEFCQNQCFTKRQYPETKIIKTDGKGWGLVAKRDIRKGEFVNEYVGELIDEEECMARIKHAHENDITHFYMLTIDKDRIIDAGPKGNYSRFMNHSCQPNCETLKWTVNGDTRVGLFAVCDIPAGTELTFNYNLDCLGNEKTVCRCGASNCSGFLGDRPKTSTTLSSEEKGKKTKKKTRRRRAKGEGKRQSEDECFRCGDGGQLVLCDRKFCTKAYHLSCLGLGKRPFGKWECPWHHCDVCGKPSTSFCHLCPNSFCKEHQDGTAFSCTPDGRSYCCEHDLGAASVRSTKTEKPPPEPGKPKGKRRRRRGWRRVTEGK
Test: not given
Format: biochemical
Conditions: not given

SMILES | AC50
NC(=O)C1CCN(C2=C(NS(=O)(=O)c3ccc(Cl)cc3)C(=O)c3ccccc3C2=O)CC1 | 14.1 µM (active)
CCN1CCCCC(=N/O)/C(=N/O)CCCC1 | > 20 µM (inactive)

Reference: ChEMBL document CHEMBL1201862, “PubChem BioAssay data set” (2004)
